The target in this test is T1, Human CaV2.2 channels (Homo sapiens, UniProt Q00975).
T1 construct: expressed in transfected cells; Kir2.3 also stably co-expressed
T1 sequence (Q00975 whole entry): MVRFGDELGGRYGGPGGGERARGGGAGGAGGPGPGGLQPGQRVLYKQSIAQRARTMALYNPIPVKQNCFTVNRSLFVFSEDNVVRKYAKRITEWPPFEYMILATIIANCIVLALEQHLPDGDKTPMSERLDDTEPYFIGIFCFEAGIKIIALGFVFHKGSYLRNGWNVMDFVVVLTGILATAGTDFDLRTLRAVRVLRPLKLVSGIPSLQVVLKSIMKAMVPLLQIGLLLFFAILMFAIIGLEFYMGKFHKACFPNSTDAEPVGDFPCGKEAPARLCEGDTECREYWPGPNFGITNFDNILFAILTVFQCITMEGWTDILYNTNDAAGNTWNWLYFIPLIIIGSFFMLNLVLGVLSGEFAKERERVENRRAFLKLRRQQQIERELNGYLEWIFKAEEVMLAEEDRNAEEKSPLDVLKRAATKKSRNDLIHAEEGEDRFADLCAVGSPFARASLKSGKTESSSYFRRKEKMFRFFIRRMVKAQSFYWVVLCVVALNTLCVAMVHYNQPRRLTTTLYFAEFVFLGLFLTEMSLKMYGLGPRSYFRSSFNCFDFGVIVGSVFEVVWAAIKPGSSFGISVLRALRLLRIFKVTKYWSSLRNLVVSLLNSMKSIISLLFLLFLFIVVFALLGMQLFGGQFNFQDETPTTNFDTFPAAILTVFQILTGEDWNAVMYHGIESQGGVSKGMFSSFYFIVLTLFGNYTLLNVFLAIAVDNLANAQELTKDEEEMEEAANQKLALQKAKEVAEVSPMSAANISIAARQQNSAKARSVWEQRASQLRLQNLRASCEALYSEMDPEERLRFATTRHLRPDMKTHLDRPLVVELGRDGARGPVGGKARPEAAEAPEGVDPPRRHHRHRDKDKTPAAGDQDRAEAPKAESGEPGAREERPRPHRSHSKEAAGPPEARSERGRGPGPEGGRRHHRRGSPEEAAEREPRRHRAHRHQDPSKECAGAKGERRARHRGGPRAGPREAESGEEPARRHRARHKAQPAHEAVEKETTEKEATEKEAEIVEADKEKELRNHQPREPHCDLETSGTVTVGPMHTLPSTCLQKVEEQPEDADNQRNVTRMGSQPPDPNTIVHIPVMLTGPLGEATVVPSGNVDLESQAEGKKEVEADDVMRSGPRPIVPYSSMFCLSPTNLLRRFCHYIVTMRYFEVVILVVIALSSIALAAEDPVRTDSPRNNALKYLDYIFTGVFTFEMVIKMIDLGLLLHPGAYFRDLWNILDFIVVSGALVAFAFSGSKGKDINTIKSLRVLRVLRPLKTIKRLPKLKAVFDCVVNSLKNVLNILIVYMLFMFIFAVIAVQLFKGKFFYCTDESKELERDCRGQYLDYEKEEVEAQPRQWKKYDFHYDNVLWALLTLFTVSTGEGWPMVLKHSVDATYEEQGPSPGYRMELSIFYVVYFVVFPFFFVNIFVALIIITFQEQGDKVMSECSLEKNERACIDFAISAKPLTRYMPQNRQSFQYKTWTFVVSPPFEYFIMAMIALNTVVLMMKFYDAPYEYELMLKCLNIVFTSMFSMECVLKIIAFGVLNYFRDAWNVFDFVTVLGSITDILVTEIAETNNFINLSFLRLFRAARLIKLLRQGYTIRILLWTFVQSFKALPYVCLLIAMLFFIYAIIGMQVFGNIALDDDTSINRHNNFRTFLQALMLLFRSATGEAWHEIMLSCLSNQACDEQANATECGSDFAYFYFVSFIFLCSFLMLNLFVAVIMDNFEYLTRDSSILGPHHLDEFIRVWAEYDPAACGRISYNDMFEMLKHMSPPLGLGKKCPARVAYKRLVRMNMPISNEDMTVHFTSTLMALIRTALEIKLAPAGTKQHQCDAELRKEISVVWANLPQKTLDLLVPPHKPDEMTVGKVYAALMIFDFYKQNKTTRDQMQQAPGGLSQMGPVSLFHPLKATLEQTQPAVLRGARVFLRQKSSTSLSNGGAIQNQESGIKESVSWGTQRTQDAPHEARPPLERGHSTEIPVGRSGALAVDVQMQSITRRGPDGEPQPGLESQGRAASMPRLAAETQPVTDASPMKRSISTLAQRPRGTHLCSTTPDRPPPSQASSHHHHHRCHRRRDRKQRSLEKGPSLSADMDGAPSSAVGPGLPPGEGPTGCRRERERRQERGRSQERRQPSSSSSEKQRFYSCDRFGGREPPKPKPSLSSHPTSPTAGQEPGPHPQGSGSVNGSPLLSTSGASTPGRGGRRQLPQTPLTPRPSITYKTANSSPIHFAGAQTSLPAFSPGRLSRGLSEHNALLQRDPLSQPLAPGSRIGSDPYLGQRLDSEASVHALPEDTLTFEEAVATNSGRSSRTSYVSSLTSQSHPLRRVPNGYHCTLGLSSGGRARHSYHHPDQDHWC
Briefly: Fluorescence assay for CaV2.2 channels using potassium depolarization to induce channel opening (FLIPR, Fluo 4). The conditions noted are these: HEK293, 3 μM test compound, 30 mM KCl assay buffer (inactivated channel state), HEK293 cells; read-out: Activity Category: %-Inhib (CaV2.2) @3 μM @30 mM KCl. The test is classed as cell-based. The text has this: In the process, the Ca^2+ influx is quantified in the FLIPR assay with the aid of a Ca^2+-sensitive dye (type Fluo-4, Molecular Probes Europe BV, Leiden, the Netherlands) in a fluorescent imaging plate reader (FLIPR 3, Molecular Devices, Sunnyvale, USA), as described hereinafter.
Human CaV2.2 channels were stably expressed in HEK293 cells together with alpha2-delta and beta subunits of voltage gated calcium channels. In addition, an inwardly rectifying potassium channel (Kir2.3) was stably expressed in these cells to augment control of the cell membrane potential by the concentration of extracellular potassium ions. Raise of the extracellular potassium concentration leads to depolarization of the membrane potential and thus regulates the voltage dependent state of CaV2.2 channels. For preparation, cells were seeded in black poly-D-lysine coated 96-well plates (Becton Dickinson, Biocoat 4640) in 100 μL medium [500 mL DMEM/F-12 plus Glutamax (Invitrogen 31331-093) plus 5.5 mL MEM NEAA 100× (Invitrogen 11140-035) plus 50 mL FBS decomplemented (Invitrogen 10270-106) plus 200 μg/mL Geneticin (Invitrogen 10131-027) plus 50 μg/mL Hygromycin B (Invitrogen 10687-010) plus 2 μg/mL Blasticidin (anti-bl5b Invivo-Gen) plus 0.2 μg/mL Puromycin (A 11138-03)] at a cell density of 30.000 cells per well. Plates were incubated at 37° C. (5% CO2) for 20 to 23 h. On the day of experiment medium was discarded and cells were loaded with Fluo 4 by addition of 100 μL of basic assay buffer (10 mM HEPES, 1 mM KCl, 149 mM NaCl, 0.8 mM CaCl2, 1.7 mM MgCl2, 10 mM Glucose, 0.1% BSA. pH 7.4) containing 2 μM Fluo 4 (Molecular Probes; F-14201), 0.01% pluronic acid (Molecular Probes; P-6866) and 2.5 mM probenecid (Molecular Probes; P36400). Cells were incubated in the dark at 25° C. for 60 min. Then dye containing buffer was discarded and 100 μL basic (1 mM KCl) or alternative (30 mM KCl) assay buffer was added. The alternative assay buffer contained altered concentrations of KCl (30 mM) and NaCl (120 mM) and was used in order to promote the inactivated channel state. After that 25 μL of basic or alternative assay buffer with or without test compound were added and cells were incubated again in the dark at 25° C. for 15 min. Fluorescence intensity was measured on a FLIPR 3 instrument (Molecular Devices Corp., Sunnyvale, Calif.) with excitation at 480 nm and emission at 535 nm. After continuously reading fluorescence for 30 sec, 50 μL of basic assay buffer containing 210 mM KCl (NaCl omitted) were added for depolarization. Peak fluorescent signal intensity was determined and the amplitude of the peak signal, normalized to base line, was used to measure channel inhibition by test compounds.
As to `CC1(C)CC(C)(S(=O)(=O)c2cccc(C(F)(F)F)c2)CC(c2ccc(Cl)cc2)O1` (racemic) [SC-302, 6-(4-Chlorophenyl)-2,2,4-trimethyl-4-[[3-(trifluoromethyl)phenyl]sulfonyl]-tetrahydro-pyran], the inhibition at 3 µM was in the range of 75 to 95%.

With `CC1(S(=O)(=O)c2cc(F)cc(C(F)(F)F)c2)CCOC(c2ccc(Cl)cc2)C1` (racemic) [SC-305, 2-(4-Chlorophenyl)-4-[[3-fluoro-5-(trifluoromethyl)-phenyl]sulfonyl]-4-methyl-tetrahydro-pyran], the inhibition at 3 µM was in the range of 75 to 95%.

`CC1(S(=O)(=O)c2cccc(OC(F)(F)F)c2)CCOC(c2ccc(Cl)cc2)C1` (racemic) [SC-315, 2-(4-Chlorophenyl)-4-methyl-4-[[3-(trifluoromethyloxy)-phenyl]sulfonyl]-tetrahydro-pyran]: the inhibition at 3 µM is more than 95%.

On to `CC1(S(=O)(=O)c2cccc(OC(F)(F)F)c2)CCOC(c2ccc(S(C)(=O)=O)cc2F)C1` (racemic) [SC-504, 2-(2-Fluoro-4-methylsulfonyl-phenyl)-4-methyl-4-[[3-(trifluoromethyloxy)-phenyl]sulfonyl]-tetrahydro-pyran], for which the inhibition at 3 µM is more than 95%.

As for `CC(C)c1cccc(S(=O)(=O)C2(C)CCOC(c3ccc(S(C)(=O)=O)cc3F)C2)c1` (racemic) [SC-505, 2-(2-Fluoro-4-methylsulfonyl-phenyl)-4-[(3-isopropyl-phenyl)sulfonyl]-4-methyl-tetrahydro-pyran], the inhibition at 3 µM was more than 95%.

In the case of `CC1(S(=O)(=O)c2cccc(C(F)F)c2)CCOC(c2ccc(S(C)(=O)=O)cc2F)C1` (racemic) [SC-508, 4-[[3-(Difluoro-methyl)-phenyl]sulfonyl]-2-(2-fluoro-4-methylsulfonyl-phenyl)-4-methyl-tetrahydro-pyran], the inhibition at 3 µM lay within 75 to 95%.

With `CC(C)Oc1cccc(S(=O)(=O)C2(C)CCOC(c3ccc(S(C)(=O)=O)cc3F)C2)c1` (racemic) [SC-511, 2-(2-Fluoro-4-methylsulfonyl-phenyl)-4-[(3-isopropoxy-phenyl)sulfonyl]-4-methyl-tetrahydro-pyran], the inhibition at 3 µM was 75 to 95%.

As to `CC1(S(=O)(=O)c2cccc(C3CC3)c2)CCOC(c2ccc(S(C)(=O)=O)cc2F)C1` (racemic) [SC-514, 4-[(3-Cyclopropyl-phenyl)sulfonyl]-2-(2-fluoro-4-methylsulfonyl-phenyl)-4-methyl-tetrahydro-pyran], the inhibition at 3 µM is more than 95%.

Turning to `CC1(S(=O)(=O)c2cc(F)cc(C(F)(F)F)c2)CCOC(c2ccc(S(C)(=O)=O)cc2F)C1` (racemic) [SC-515, 2-(2-Fluoro-4-methylsulfonyl-phenyl)-4-[[3-fluoro-5-(trifluoromethyl)-phenyl]sulfonyl]-4-methyl-tetrahydro-pyran], the inhibition at 3 µM was more than 95%.

For `CC1(S(=O)(=O)c2cccc(OC(F)F)c2)CCOC(c2ccc(S(C)(=O)=O)cc2F)C1` (racemic) [SC-520, 4-[[3-(Difluoro-methoxy)-phenyl]sulfonyl]-2-(2-fluoro-4-methylsulfonyl-phenyl)-4-methyl-tetrahydro-pyran], the inhibition at 3 µM fell in the range of 75 to 95%.

Regarding `CC1(S(=O)(=O)c2cccc(C(F)(F)F)c2)CCC(c2ccc(Cl)cc2)OC1` (single isomer, unassigned) [SC-116, 2-(4-Chlorophenyl)-5-methyl-5-[[3-(trifluoromethyl)phenyl]sulfonyl]-tetrahydro-pyran], the inhibition at 3 µM lay in the range of 40 to 75%.

For `CC1(c2ccc(Cl)cc2)CC(S(=O)(=O)c2cccc(C(F)(F)F)c2)CCO1` (single isomer, unassigned) [SC-117, 2-(4-Chlorophenyl)-2-methyl-4-[[3-(trifluoromethyl)phenyl]sulfonyl]-tetrahydro-pyran], the inhibition at 3 µM was more than 95%.

Turning to `CC1(S(=O)(=O)c2cccc(C(F)(F)F)c2)CCOC(COc2ccc(Cl)cc2)C1` (single isomer, unassigned) [SC-127, 2-((4-chlorophenoxy)methyl)-4-methyl-4-((3-(trifluoromethyl)phenyl)sulfonyl)tetrahydro-2H-pyran], the inhibition at 3 µM was more than 95%.

The record behind these values is patent US9896440B2, “Aryl substituted heterocyclyl sulfones” (GRÜNENTHAL GMBH, priority 2014, dated 2018).
